Measured values reported in patent publication US20100196325A1 (priority 2007, published 2010).
“Also recorded” adds a separate entry of the source. Read-outs that look alike come from different tables or passages of the source.

How the values were obtained:
tumor = test system: tumor; design: species or system patient; details: human, in vivo
[1] = test system: modified vaccinia virus, such as GLV-1h68; design: species or system patient; details: human, in vivo
[2] = test system: recombinant vaccinia virus GLV-1h68; assay type: cell-based
[3] = human, in vivo; for Side effects from the virus: iv
[4] = test system: PANC-1 human pancreatic carcinoma cells; design: species or system nude mice; details: mouse, in vivo
[5] = test system: recombinant vaccinia virus GLV-1h68; assay type: cell-based; remark: listed apart in the source
[6] = test system: A549 lung carcinoma cells; design: species or system nude mice; details: mouse, in vivo
[7] = Pock formation (systemic toxicity) after i.v. GLV-1h68 in GI-101A tumor-bearing mice; details: 80 days after virus injection; GLV-1h68 virus-treated animals given four doses of irinotecan 80 mg/kg i.p.; n=8
[8] = test system: GI-101A human breast carcinoma cells; design: species or system nude mice; details: mouse, in vivo
[9] = test system: recombinant vaccinia virus GLV-1h68; assay type: cell-based; remark: listed apart in the source

Compound | Tumor growth (tumor) | Viral load in the bloodstream [1] | Viral load in the bloodstream: decrease [1] | Viral load in the bloodstream: increase [1] | Viral load in the bloodstream ([1]; iv) | Concentration at which growth of GLV-1h68 was completely inhibited [2] [µM] | Effect on GLV-1h68 growth in GI-101A cells (in words) [2] | Body weight and pock formation [3] | Patient's symptoms [3] | Virus-associated side effects [3] | Side effects from the virus [3] | Tumor growth (tumor; iv) | Effect on tumor growth (in words) [4] | Concentration at which growth of GLV-1h68 was completely inhibited [5] [µM] | Effect on tumor growth (in words) [6] | Animals in which no pocks were observed on any part of the body [7] | Effect on tumor growth (in words) [8] | Concentration at which growth of GLV-1h68 was completely inhibited [9] [µM] | Effect on GLV-1h68 growth in GI-101A cells (in words) [9]
COc1cccc2c1C(=O)c1c(O)c3c(c(O)c1C2=O)C[C@@](O)(C(=O)CO)C[C@@H]3O[C@H]1C[C@H](N)[C@H](O)[C@H](C)O1 [Doxorubicin] | tumor growth is arrested or decreases | is maintained or increases before subsequently decreasing | decreases more quickly; also recorded: decreases more rapidly | increased to a lesser extent | decreases over the period of time | ≥ 1 | started to inhibit | body weight of the patient is improved and any pock formation dissipates | symptoms subside | Fewer virus-associated side effects | suffers fewer side effects from the virus |  |  |  |  |  |  |  | 
Nc1ccn(C2OC(CO)C(O)C2(F)F)c(=O)n1 (centres unmarked) [Gemcitabine, 4-amino-1-[3,3-difluoro-4-hydroxy-5-(hydroxymethyl)tetrahydrofuran-2-yl]-1H-pyrimidine-2-one] | tumor growth is arrested or decreases | is maintained or increases before subsequently decreasing | decreases more quickly; also recorded: decreases more rapidly | increases to a lesser extent | decreases over the period of time |  |  | body weight of the patient is improved and any pock formation dissipates | symptoms subside | Fewer virus-associated side effects | suffers fewer side effects from the virus | tumor growth is arrested or decreases | decrease tumor growth in the mice at both 50 mg/kg and 100 mg/kg doses to some extent | ≥ 1.0 | did not cause any inhibition of tumor growth |  |  |  | 
CCc1c2c(nc3ccc(OC(=O)N4CCC(N5CCCCC5)CC4)cc13)-c1cc3c(c(=O)n1C2)COC(=O)[C@]3(O)CC [Irinotecan] | tumor growth is arrested or decreases | is maintained or increases before subsequently decreasing | decreases more quickly; also recorded: decreases more rapidly | increased to a lesser extent | decreases over the period of time |  |  | body weight of the patient is improved and any pock formation dissipates | symptoms subside | Fewer virus-associated side effects | suffers fewer side effects from the virus | tumor growth is arrested or decreases |  |  |  | 7 out of 8 | increased tumor growth |  | 
N.N.[Cl][Pt][Cl] [Cisplatin] | tumor growth is arrested or decreases | is maintained or increases before subsequently decreasing | decreases more quickly; also recorded: decreases more rapidly | increased to a lesser extent | decreases over the period of time |  |  | body weight of the patient is improved and any pock formation dissipates | symptoms subside | Fewer virus-associated side effects | suffers fewer side effects from the virus |  |  |  |  |  |  | ≥ 100 | started to inhibit; also recorded: significantly inhibited the virus growth
